Several values for one entry are separate records, joined by “and”; a condition that tells them apart may be missing. Equal entries are not always repeated. Toxic doses and inconclusive results are not listed. The calls were made as follows: active = survival T/C of 150% or more; inactive = T/C below 125% in these data.
Test system: CD2F1 mice, L1210 leukemia ip, survival T/C
Assay: NCI In Vivo Anticancer Drug Screen. Data for tumor model L1210 Leukemia (intraperitoneal) in CD2F1 (CDF1) mice
Details: endpoint: mean survival time, higher = longer survival
Procedure, shortened: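 Tumor-bearing mice (transplanted tumor) were split into treated and vehicle control groups, and the measured endpoint of each treated group was divided by that of its vehicle controls.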

[1] = dose: 100.0 mg/kg/injection, schedule: Q04DX003 (ip), vehicle: saline with Tween-80
[2] = dose: 200.0 mg/kg/injection, schedule: Q04DX003 (ip), vehicle: saline with Tween-80
[3] = dose: 400.0 mg/kg/injection, schedule: Q04DX003 (ip), vehicle: saline with Tween-80
[4] = dose: 100.0 mg/kg/injection, schedule: Q01DX009 (ip), vehicle: saline with Tween-80
[5] = dose: 200.0 mg/kg/injection, schedule: Q01DX009 (ip), vehicle: saline with Tween-80
[6] = dose: 100.0 mg/kg/injection, schedule: Q04DX002 (ip), vehicle: saline with Tween-80
[7] = dose: 200.0 mg/kg/injection, schedule: Q04DX002 (ip), vehicle: saline with Tween-80
[8] = dose: 100.0 mg/kg/injection, schedule: Q04DX003 (ip), vehicle: Klucel (hydroxypropylcellulose) (HPC)
[9] = dose: 200.0 mg/kg/injection, schedule: Q04DX003 (ip), vehicle: Klucel (hydroxypropylcellulose) (HPC)
[10] = dose: 400.0 mg/kg/injection, schedule: Q04DX003 (ip), vehicle: Klucel (hydroxypropylcellulose) (HPC)
[11] = dose: 50.0 mg/kg/injection, schedule: Q01DX009 (ip), vehicle: saline with Tween-80
[12] = dose: 100.0 mg/kg/injection, schedule: Q01DX001 (ip), vehicle: saline with Tween-80
[13] = dose: 400.0 mg/kg/injection, schedule: Q01DX009 (ip), vehicle: saline with Tween-80

Measured: T/C

COc1ccc(NC(=O)Nc2ccc(F)cc2)cc1
inactive: [1] 101 % of control | [2] 96 % of control | [3] 102 % of control

CCCCCCCCCCCCCCCc1cc(=O)n(-c2ccc(C(=O)OCC)cc2)n1C
inactive: [4] 92 % of control | [1] 97 % of control | [5] 86 % of control | [2] 88 % of control | [3] 100 % of control

O=C1c2ccccc2S(=O)(=O)c2cccc(S(=O)(=O)c3ccccc3)c21
inactive: [1] 98 % of control | [2] 95 % of control | [3] 90 % of control

COc1ccc(NC(=O)Nc2cc(Cl)c(OC)cc2OC)cc1
inactive: [6] 93 % of control | [7] 86 % of control

O=C1/C(=C/c2ccccc2[N+](=O)[O-])Cc2ccccc21
inactive: [8] 100 % of control | [9] 100 % of control | [10] 103 % of control

O=C([S-])N1CCCCC1.O=C([S-])N1CCCCC1.[Ni+2]
inactive: dose: 12.5 mg/kg/injection, schedule: Q01DX009 (ip), vehicle: saline with Tween-80 96 % of control | dose: 12.5 mg/kg/injection, schedule: Q04DX003 (ip), vehicle: saline sonified 100 % of control | dose: 25.0 mg/kg/injection, schedule: Q01DX009 (ip), vehicle: saline with Tween-80 93 % of control | dose: 25.0 mg/kg/injection, schedule: Q04DX003 (ip), vehicle: saline sonified 113 % of control | [11] 106 % of control | dose: 50.0 mg/kg/injection, schedule: Q04DX003 (ip), vehicle: saline sonified 92 % of control

CC(CCC(=O)O)(c1ccc(O)cc1)c1ccc(O)cc1
inactive: dose: 100.0 mg/kg/injection, schedule: Q01DX009 (ip), vehicle: other 91 % of control | dose: 200.0 mg/kg/injection, schedule: Q01DX009 (ip), vehicle: other 101 % of control | dose: 400.0 mg/kg/injection, schedule: Q01DX009 (ip), vehicle: other 97 % of control

CCOC(=O)c1ccc(NC/C(CN)=N/O)cc1
inactive: dose: 75.0 mg/kg/injection, schedule: Q01DX001 (ip), vehicle: other 95 % of control | dose: 150.0 mg/kg/injection, schedule: Q01DX001 (ip), vehicle: other 95 % of control

O.O=[Se](=O)(O)O.[NH-]C1CCCCC1[NH-].[Pt+2] (stereo not drawn)
inactive: dose: 2.0 mg/kg/injection, schedule: Q01DX009 (ip), vehicle: dextrose 88 % of control | dose: 3.0 mg/kg/injection, schedule: Q01DX009 (ip), vehicle: dextrose 109 % of control | dose: 8.0 mg/kg/injection, schedule: Q04DX003 (ip), vehicle: dextrose 87 % of control

OCC(O)COCc1ccccc1 (stereo not drawn)
inactive: dose: 100.0 mg/kg/injection, schedule: Q01DX009 (ip), vehicle: saline 94 % of control | dose: 200.0 mg/kg/injection, schedule: Q01DX009 (ip), vehicle: saline 94 % of control | dose: 400.0 mg/kg/injection, schedule: Q01DX009 (ip), vehicle: saline 96 % of control

COc1cc2c(c(OC)c1OC)-c1ccc(SC)c(=O)cc1C(N=C(NC1OCC(OC(C)=O)C(OC(C)=O)C1OC(C)=O)SN(NC(=O)OCc1ccccc1)C(=O)OCc1ccccc1)CC2 (stereo not drawn)
inactive: [12] 92 % of control

Cc1cccc(C)c1NC(=O)c1ccccc1C(=O)O
inactive: [4] 92 % of control | [1] 98 % of control | [5] 92 % of control | [2] 98 % of control | [13] 97 % of control | [3] 96 % of control

CC(=O)NNC(=O)c1ccccc1N=NN(C)C
inactive: dose: 18.75 mg/kg/injection, schedule: Q01DX009 (ip), vehicle: Klucel (hydroxypropylcellulose) (HPC) 94 % of control and 100 % of control | dose: 37.5 mg/kg/injection, schedule: Q01DX009 (ip), vehicle: Klucel (hydroxypropylcellulose) (HPC) 102 % of control and 111 % of control | dose: 75.0 mg/kg/injection, schedule: Q01DX009 (ip), vehicle: Klucel (hydroxypropylcellulose) (HPC) 109 % of control | dose: 150.0 mg/kg/injection, schedule: Q01DX009 (ip), vehicle: Klucel (hydroxypropylcellulose) (HPC) 105 % of control and 111 % of control

COC(=O)c1cccc(O)c1O
inactive: dose: 100.0 mg/kg/injection, schedule: Q04DX002 (ip), vehicle: other 98 % of control | dose: 200.0 mg/kg/injection, schedule: Q04DX002 (ip), vehicle: other 92 % of control | dose: 400.0 mg/kg/injection, schedule: Q04DX002 (ip), vehicle: other 95 % of control

CCCC(C)(C)c1ccc(Cl)cc1
inactive: [11] 96 % of control | [4] 104 % of control | [5] 104 % of control

Ic1cccs1
inactive: dose: 100.0 mg/kg/injection, schedule: Q01DX001 (ip), vehicle: saline 95 % of control

Nc1nc2c(ncn2-c2ccccc2F)c(=O)[nH]1
inactive: dose: 25.0 mg/kg/injection, schedule: Q01DX001 (ip), vehicle: saline with Tween-80 102 % of control | dose: 50.0 mg/kg/injection, schedule: Q01DX001 (ip), vehicle: saline with Tween-80 106 % of control | [12] 94 % of control and 98 % of control

COC(=N)C/C=C/CC(=N)OC
inactive: [1] 98 % of control | [2] 95 % of control | [3] 98 % of control

CCCCCCCCCC(O)CCCCCC (stereo not drawn)
inactive: dose: 200.0 mg/kg/injection, schedule: Q04DX003 (ip), vehicle: other 108 % of control | dose: 400.0 mg/kg/injection, schedule: Q04DX003 (ip), vehicle: other 96 % of control

O=NN(CCCl)C(=O)Nc1ccc(Br)cn1
inactive: dose: 20.0 mg/kg/injection, schedule: Q01DX001 (ip), vehicle: carboxymethylcellulose (CMC) 115 % of control

COC1CCC(/C(C#N)=C/C2CCC(OC)C(OC)C2)CC1 (stereo not drawn)
inactive: [6] 94 % of control | [7] 94 % of control | dose: 400.0 mg/kg/injection, schedule: Q04DX002 (ip), vehicle: saline with Tween-80 94 % of control

CC1(C)N=C(N)N=C(N)N1c1ccc(OCCOc2ccc(S(=O)(=O)F)cc2)c(Cl)c1
inactive: dose: 25.0 mg/kg/injection, schedule: Q04DX003 (ip), vehicle: saline with Tween-80 114 % of control | [1] 120 % of control

COS(=O)C(c1ccccc1)C(c1ccccc1)C(O)c1ccccc1 (stereo not drawn)
inactive: [4] 90 % of control | [5] 90 % of control | [13] 95 % of control

CCCCOC(=O)/C=C/C(=O)OCCCC
inactive: [1] 102 % of control | [2] 102 % of control | [3] 105 % of control

CCC(Cc1ccccc1)C1=NC(C)(C)CC(C)O1 (stereo not drawn)
inactive: [12] 97 % of control | dose: 200.0 mg/kg/injection, schedule: Q01DX001 (ip), vehicle: saline with Tween-80 89 % of control

c1ccc(N/N=C(/C[n+]2cc3ccccc3c3ccccc32)c2ccccc2)cc1
inactive: [8] 94 % of control | [9] 106 % of control | [10] 109 % of control

NC(CS)=NCCc1nc2ccccc2[nH]1
inactive: dose: 6.25 mg/kg/injection, schedule: Q04DX002 (ip), vehicle: saline 96 % of control | dose: 12.5 mg/kg/injection, schedule: Q04DX002 (ip), vehicle: saline 93 % of control | dose: 25.0 mg/kg/injection, schedule: Q04DX002 (ip), vehicle: saline 96 % of control and 104 % of control | dose: 50.0 mg/kg/injection, schedule: Q04DX002 (ip), vehicle: saline 106 % of control

CCOC(=O)C1C(C(=O)OCC)C(C)(C)C1N(C)C (stereo not drawn)
inactive: [11] 107 % of control | [4] 98 % of control | [5] 98 % of control

COC(=O)c1cc(NC(C)=O)ccc1S(=O)(=O)c1ccc(NC(C)=O)cc1C(=O)OC
inactive: [1] 101 % of control | [2] 101 % of control | [3] 97 % of control

COc1ccc(/C=N\NC(=O)c2ccccc2)cc1
inactive: [4] 95 % of control | [5] 95 % of control | [13] 86 % of control

O=C1C(=O)c2ccccc2C(O)=C1[N+](=O)[O-]
inactive: [4] 96 % of control | [1] 100 % of control | [2] 103 % of control | [3] 112 % of control
